Tested on: Anopheles funestus
Test: not given
Details: ID 200044; F1, house resting indoors, 4/2009-4/2010, Kalungama, Malawi; WHO Bioassay 1998; ref Wondji CS et al. Proc Natl Acad Sci U S A. 2012;109(47):19063-70; cited from earlier work

Row | Compound | mortality
1 | CC1(C)C(C=C(Cl)Cl)C1C(=O)OCc1cccc(Oc2ccccc2)c1 (stereo not drawn) [Permethrin, permethrin] | 67.4
2 | CC1(C)[C@H](C(=O)O[C@H](C#N)c2cccc(Oc3ccccc3)c2)[C@@H]1C=C(Br)Br [Deltamethrin, deltamethrin] | 51.2
3 | CC1(C)[C@H](C(=O)O[C@H](C#N)c2cccc(Oc3ccccc3)c2)[C@@H]1/C=C(\Cl)C(F)(F)F (racemic) [λ-Cyhalothrin, λ-cyhalothrin] | 34.3

Same assay, conditions: ID 200045; F1, house resting indoors, 4/2009-4/2010, Chinkole, Malawi; WHO Bioassay 1998; ref Wondji CS et al. Proc Natl Acad Sci U S A. 2012;109(47):19063-70; cited from earlier work

Row | Compound | mortality
4 | CC1(C)[C@H](C(=O)O[C@H](C#N)c2cccc(Oc3ccccc3)c2)[C@@H]1C=C(Br)Br [Deltamethrin, deltamethrin] | 68.5
5 | CC1(C)[C@H](C(=O)O[C@H](C#N)c2cccc(Oc3ccccc3)c2)[C@@H]1/C=C(\Cl)C(F)(F)F (racemic) [λ-Cyhalothrin, λ-cyhalothrin] | 60

Same assay, conditions: ID 200048; F1, house resting indoors, 3/2000-7/2002, Catembe, Mozambique; WHO Bioassay 1998; ref Casimiro S et al. J Med Entomol. 2006;43(2):267-75; cited from earlier work

Row | Compound | mortality
6 | CC1(C)C(C=C(Cl)Cl)C1C(=O)OCc1cccc(Oc2ccccc2)c1 (stereo not drawn) [Permethrin, permethrin] | 100
7 | CC1(C)[C@H](C(=O)O[C@H](C#N)c2cccc(Oc3ccccc3)c2)[C@@H]1C=C(Br)Br [Deltamethrin, deltamethrin] | 55.2
8 | CC1(C)[C@H](C(=O)O[C@H](C#N)c2cccc(Oc3ccccc3)c2)[C@@H]1/C=C(\Cl)C(F)(F)F (racemic) [λ-Cyhalothrin, λ-cyhalothrin] | 59.3

Same assay, conditions: ID 200117; F1, house resting indoors, 4/2009-11/2009, Tororo, Uganda; WHO Bioassay 1998; ref Morgan JC et al. PLoS One. 2010;5(7); cited from earlier work

Row | Compound | mortality
9 | CC1(C)C(C=C(Cl)Cl)C1C(=O)OCc1cccc(Oc2ccccc2)c1 (stereo not drawn) [Permethrin, permethrin] | 69
10 | CC1(C)[C@H](C(=O)O[C@H](C#N)c2cccc(Oc3ccccc3)c2)[C@@H]1C=C(Br)Br [Deltamethrin, deltamethrin] | 39

Tested on: CYP9J5
Test: not given
Details: read-out: IC50 CYP9J5; inhibition of diethoxyfluorescein metabolism; footnote a; ref Yunta et al. 2016[8]; cited from earlier work

Row | Compound | IC50
11 | CC1(C)C(C=C(Cl)Cl)C1C(=O)OCc1cccc(Oc2ccccc2)c1 (stereo not drawn) [Permethrin, permethrin] | 6.5 µM
12 | CC1(C)[C@H](C(=O)O[C@H](C#N)c2cccc(Oc3ccccc3)c2)[C@@H]1C=C(Br)Br [Deltamethrin, deltamethrin] | 6.1 µM

Same assay, conditions: read-out: IC50 CYP9J5; inhibition of diethoxyfluorescein metabolism; footnote b; ref Yunta et al. 2019[10]; cited from earlier work

Row | Compound | IC50
13 | Cc1c(COC(=O)[C@@H]2[C@H](/C=C(\Cl)C(F)(F)F)C2(C)C)cccc1-c1ccccc1 (racemic) [Bifenthrin, bifenthrin] | 2.5 µM
14 | CC1(C)[C@H](C(=O)O[C@H](C#N)c2cccc(Oc3ccccc3)c2)[C@@H]1/C=C(\Cl)C(F)(F)F (racemic) [λ-Cyhalothrin, λ-cyhalothrin] | 4.2 µM
15 | CCOc1ccc(C(C)(C)COCc2cccc(Oc3ccccc3)c2)cc1 [Etofenprox, etofenprox] | 8 µM

Target: T1, CYP6Z3 (Anopheles gambiae, UniProt Q86LT6, H411Y/S209G/W396L)
T1 sequence (Q86LT6 1-492 S209G/W396L/H411Y): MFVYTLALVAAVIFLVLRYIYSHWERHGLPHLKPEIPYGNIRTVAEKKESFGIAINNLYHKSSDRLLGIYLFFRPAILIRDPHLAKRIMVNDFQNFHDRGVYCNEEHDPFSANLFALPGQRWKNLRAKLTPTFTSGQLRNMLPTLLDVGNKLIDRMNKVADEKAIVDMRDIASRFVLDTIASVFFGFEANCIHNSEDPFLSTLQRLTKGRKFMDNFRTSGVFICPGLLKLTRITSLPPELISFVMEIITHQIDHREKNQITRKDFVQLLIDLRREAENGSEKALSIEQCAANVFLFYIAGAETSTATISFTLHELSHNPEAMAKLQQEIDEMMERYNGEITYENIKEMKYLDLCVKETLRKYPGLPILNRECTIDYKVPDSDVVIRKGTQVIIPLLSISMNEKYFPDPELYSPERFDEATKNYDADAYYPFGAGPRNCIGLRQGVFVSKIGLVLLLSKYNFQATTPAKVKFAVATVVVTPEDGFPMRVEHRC
T1 sequence (Q86QH5 1-679 partner): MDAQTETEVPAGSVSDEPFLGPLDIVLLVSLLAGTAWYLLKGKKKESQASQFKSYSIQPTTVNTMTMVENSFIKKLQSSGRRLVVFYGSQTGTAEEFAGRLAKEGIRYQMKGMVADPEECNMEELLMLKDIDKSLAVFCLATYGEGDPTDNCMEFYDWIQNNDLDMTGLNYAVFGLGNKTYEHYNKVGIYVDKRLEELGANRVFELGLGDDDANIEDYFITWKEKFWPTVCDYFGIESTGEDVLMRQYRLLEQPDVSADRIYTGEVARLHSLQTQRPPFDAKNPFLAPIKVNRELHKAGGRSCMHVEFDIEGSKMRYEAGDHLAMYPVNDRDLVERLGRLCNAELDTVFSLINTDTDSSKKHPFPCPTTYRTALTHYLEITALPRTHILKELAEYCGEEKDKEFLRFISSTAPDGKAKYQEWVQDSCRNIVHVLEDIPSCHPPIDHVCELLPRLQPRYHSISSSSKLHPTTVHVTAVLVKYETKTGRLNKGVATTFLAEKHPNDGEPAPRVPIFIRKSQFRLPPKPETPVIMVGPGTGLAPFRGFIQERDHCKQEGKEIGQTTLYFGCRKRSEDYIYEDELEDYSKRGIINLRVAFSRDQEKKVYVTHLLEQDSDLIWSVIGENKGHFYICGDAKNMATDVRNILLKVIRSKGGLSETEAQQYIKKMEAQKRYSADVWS
Test: Inhibition screening of pyrethroids, diethoxyfluorescein, CYP6Z3
Type: biochemical
Details: not given
From the text: Cytochrome P450 inhibition assays using fluorogenic probe substrates have become commonplace in drug discovery screening cascades and are a rapid method of screening for insecticide interactions with mosquito P450s to predict insecticide binding, metabolism, cross-resistance and synergism. In this study, the half maximal inhibitory concentration (IC50), which provides a value for inhibition of each P450 by each pyrethroid (also referred to as ‘binding affinity’), and the percentage depletion, which gives a value for metabolism of each pyrethroid by each P450 (also referred to as vulnerability to metabolic attack), were both included as parameters to establish a P450s structural activity relationship model. This model was used to understand both the chemistry of the pyrethroids and the interaction with mosquito P450s that function as monooxygenases in metabolic resistance, to predict cross-resistance liabilities in vivo. […] A low percentage depletion indicates low metabolism of the pyrethroid, which means that it may be less vulnerable to resistance mediated by P450s.
In addition, inhibition activity data for these pyrethroids exposed to CYP6Z3 from the An. gambiae Kisumu strain were also generated (Additional file 1).
1. Preparation of An. gambiae CYP6Z3 and cloning
Total RNA was extracted with Arcturus PicoPure Kit (Applied Biosystems, USA) from ten adult An. gambiae mosquitoes from the Kisumu strain [1]. Complementary DNA was prepared using Superscript III (Invitrogen) with an oligo (dT)20 primer and used as a template for amplifying full -length AgCyp6z3 with KOD DNA polymerase (Merk Chemicals) . The gene-specific primers used in these high -fidelity PCRs (Table S1) were designed according to the reference An. gambiae PEST CYP6Z3 genome sequence (Accession number AY193727) The PCR product was ligated into pGEM T-easy vector (Promega) and sequenced on both strands. Consistent with the high frequency of polymorphism in An. gambiae P450s [2](Martin Nature Ref) there were 36 single nucleotide polymorphism (SNPs) compared with the reference sequence, of which three produced amino acid changes, S209G, W396L, and H411Y. For expression, the ompA leader sequence (ompA) was engineered onto the amino - terminus of the AgCyp6z3 gene to direct the P450 into the E. coli […] during expression as previously described. The ompA-leader was fused to AgCyp6z3 cDNA in frame with AgCyp6z3 initiation codon by fusion PCR using High fidelity Phusion polymerase (Scientific). The ompA AgCyp6z3 fusion was flanked at the 5′ and 3′ ends with NdeI and EcoR1, respectively for ligation into NdeI/EcoRI linearised pB13 (pCWori+).
Table S1. Primers used for amplification of CYP6Z3 and in vitro functional characterisation […]
ompA+2 Forward […]
ompA+2 CYP6Z3 fusion […]
2. Preparation of membranes expressing P450 and AgCPR
To express functional P450, AgCyp6z3 cloned into pB13 plasmid was co-transformed into E. coli JM109 cells with An. gambiae NADPH-cytochrome P450 reductase (AgCPR-pACYC). The P450 and the AgCPR were previously fused with ompA and pelB leader sequences respectively to direct the expressed proteins to the inner bacterial periplasm in order to form functional monooxygenase complex. For P450 production, 200 mL E. coli cultures in Terrific Broth were incubated at 21°C with shaking at 120 RPM for 18–24 h after induction with 1 mM IPTG. Following expression, E. coli membranes containing CYP6Z3 were isolated and P450 and AgCPR content measured as previously described. Samples were stored in aliquots of 100 µL at −80°C. An. gambiae cytochrome b5 was prepared as described previously to supplement enzyme reactions at an 8:1 M ratio, b5: P450 [4].
3. Inhibition screening of pyrethroids.
Inhibition screening of pyrethroid inhibitors and IC50 calculations carried out according Yunta et al. […]

Row | Compound | IC50
16 | CC1(C)C(C=C(Cl)Cl)C1C(=O)OCc1cccc(Oc2ccccc2)c1 (stereo not drawn) [Permethrin, permethrin] | 3.7 µM
17 | CC1(C)[C@H](C(=O)O[C@H](C#N)c2cccc(Oc3ccccc3)c2)[C@@H]1C=C(Br)Br [Deltamethrin, deltamethrin] | 3.4 µM
18 | Cc1c(COC(=O)[C@@H]2[C@H](/C=C(\Cl)C(F)(F)F)C2(C)C)cccc1-c1ccccc1 (racemic) [Bifenthrin, bifenthrin] | 17 µM
19 | CC1(C)[C@H](C(=O)O[C@H](C#N)c2cccc(Oc3ccccc3)c2)[C@@H]1/C=C(\Cl)C(F)(F)F (racemic) [λ-Cyhalothrin, λ-cyhalothrin] | 3.3 µM
20 | CCOc1ccc(C(C)(C)COCc2cccc(Oc3ccccc3)c2)cc1 [Etofenprox, etofenprox] | 4.8 µM

Tested on: CYP6P9a
Test: not given
Details: Incubation time 2h; mean ± SD; ref [38], [41]; cited from earlier work

Row | Compound | % Insecticide depletion CYP6P9a
21 | CC1(C)C(C=C(Cl)Cl)C1C(=O)OCc1cccc(Oc2ccccc2)c1 (stereo not drawn) [Permethrin, permethrin] | 87.8 ± 0.7%
22 | Cc1c(COC(=O)[C@@H]2[C@H](/C=C(\Cl)C(F)(F)F)C2(C)C)cccc1-c1ccccc1 (racemic) [Bifenthrin, bifenthrin] | 53.4 ± 1.6%
23 | CC1(C)[C@H](C(=O)O[C@H](C#N)c2cccc(Oc3ccccc3)c2)[C@@H]1/C=C(\Cl)C(F)(F)F (racemic) [λ-Cyhalothrin, λ-cyhalothrin] | 67.1 ± 3.1%
24 | CCOc1ccc(C(C)(C)COCc2cccc(Oc3ccccc3)c2)cc1 [Etofenprox, etofenprox] | 98.5 ± 0.2%
